# Where “and” joins values, the source holds several entries; their conditions need not be identical. Identical values can stand only once. Where a SMILES comes first, the peptide text is derived from it. [ ]: non-standard residue; d: D form. Hyp = O=C(O)[C@@H]1C[C@@H](O)CN1
# Test system: TIMP-1
# Test: Example 9 Luminex, LPS hPBMCs: TIMP-1
# Assay type: cell-based, human
# Procedure: Treatment Human PBMCs were pretreated with YY-101, YDE-011 and YDE-043 or reference compound; Xiidra® at various concentration (ranging from 1 nM to 100 uM) for 2 h before stimulation. An equal volume of 0.5% DMSO was used as a vehicle control. Then, the cells were treated with LPS at 5 ug/ml. The supernatants from treated cells were harvested at 24 h and placed in a 96 well for Luminex cytokine & chemokine profiling using a Luminex 200 multiplex assay (Luminex; R&D system, USA).
# The main study arm with triplicate wells per group in a 24-well plate: • 1. Blank • 2. PBMC: 0.5% DMSO • 3. PBMC+LPS (5 ug/ml) • 4. PBMC+YY-101 100 uM • 5. PBMC+YY-101 10 uM • 6. PBMC+YY-101 1 uM • 7. PBMC+YY-101 0.1 uM • 8. PBMC+YY-101 0.01 uM • 9. PBMC+LPS (5 ug/ml)+Xiidra®100 uM • 10. PBMC+LPS (5 ug/ml)+Xiidra® 10 uM • 11. PBMC+LPS (5 ug/ml)+Xiidra® 1 uM • 12. PBMC+LPS (5 ug/ml)+Xiidra®0.1 uM • 13. PBMC+LPS (5 ug/ml)+Xiidra®0.01 uM • 14. PBMC+LPS (5 ug/ml)+Xiidra®0.001 uM • 15. PBMC+LPS (5 ug/ml)+YY-101 100 uM • 16. PBMC+LPS (5 ug/ml)+YY-101 10 uM • 17. PBMC+LPS (5 ug/ml)+YY-101 1 uM • 18. PBMC+LPS (5 ug/ml)+YY-101 0.1 uM • 19. PBMC+LPS (5 ug/ml)+YY-101 0.01 uM • 20. PBMC+LPS (5 ug/ml)+YY-101 0.001 uM • 21. PBMC+LPS (5 ug/ml)+YDE-011 100 uM • 22. PBMC+LPS (5 ug/ml)+YDE-011 10 uM • 23. PBMC+LPS (5 ug/ml)+YDE-011 1 uM • 24. PBMC+LPS (5 ug/ml)+YDE-011 0.1 uM • 25. PBMC+LPS (5 ug/ml)+YDE-011 0.01 uM • 26. PBMC+LPS (5 ug/ml)+YDE-011 0.001 uM • 27. PBMC+LPS (5 ug/ml)+YDE-043 100 uM • 28. PBMC+LPS (5 ug/ml)+YDE-043 10 uM • 29. PBMC+LPS (5 ug/ml)+YDE-043 1 uM • 30. PBMC+LPS (5 ug/ml)+YDE-043 0.1 uM • 31. PBMC+LPS (5 ug/ml)+YDE-043 0.01 uM • 32. PBMC+LPS (5 ug/ml)+YDE-043 0.001 uM
# Multiplex assay was used to measure 30 cytokines and chemokines. The 1:2, 1:10 and 1:200 diluted cell supernatant and serial dilution of the standard were dispensed into a 96 well plate at 50 ul/well. Then, the pre-mixed cocktail of antibody-coated magnetic beads was dispensed at 50 ul/well and incubated at room temperature for 2 h in a horizontal orbital microplate shaker at 800±500 rpm. The beads were washed using a magnetic device to prevent loss. The biotin-antibody was dispensed in 50 ul of each well and incubated at room temperature for 1 h in a shaker at 800±500 rpm. After washing, streptavidin-PE was added at 50 ul/well and incubated at room temperature for 30 min in a shaker under the same conditions. Finally, after washing, wash buffer (100 ul/well) was added to the plate and incubated in a shaker for 2 min. The Luminex™ 200 setting were set according to the manufacturer's protocol. The data was calculated with a standard five-parameter logistic nonlinear regression analysis of the data (xPonent software 4.2, USA). The levels of cytokine/chemokine are normalized to the live cell counts (1×10^5 cells/mL) and presented as concentrations per mL (pg/mL or ng/mL).
# [1] = PBMC + LPS(5 ug/ml), test article 0.001 uM, Mean
# [2] = PBMC + LPS(5 ug/ml), test article 0.001 uM, single replicates
# [3] = PBMC + LPS(5 ug/ml), test article 0.01 uM, Mean
# [4] = PBMC + LPS(5 ug/ml), test article 0.01 uM, single replicates
# [5] = PBMC + LPS(5 ug/ml), test article 0.1 uM, Mean
# [6] = PBMC + LPS(5 ug/ml), test article 0.1 uM, single replicates
# [7] = PBMC + LPS(5 ug/ml), test article 1 uM, Mean
# [8] = PBMC + LPS(5 ug/ml), test article 1 uM, single replicates
# [9] = PBMC + LPS(5 ug/ml), test article 10 uM, Mean
# [10] = PBMC + LPS(5 ug/ml), test article 10 uM, single replicates
# [11] = PBMC + LPS(5 ug/ml), test article 100 uM, Mean
# [12] = PBMC + LPS(5 ug/ml), test article 100 uM, single replicates
# [13] = PBMC without LPS, test article 0.01 uM, Mean
# [14] = PBMC without LPS, test article 0.01 uM, single replicates
# [15] = PBMC without LPS, test article 0.1 uM, Mean
# [16] = PBMC without LPS, test article 0.1 uM, single replicates
# [17] = PBMC without LPS, test article 1 uM, Mean
# [18] = PBMC without LPS, test article 1 uM, single replicates
# [19] = PBMC without LPS, test article 10 uM, Mean
# [20] = PBMC without LPS, test article 10 uM, single replicates
# [21] = PBMC without LPS, test article 100 uM, Mean
# [22] = PBMC without LPS, test article 100 uM, single replicates
smiles,measurement,setting,value
CC(C)C[C@H](NC(=O)CNC(=O)[C@H](CC(=O)O)NC(=O)[C@H](CCC(N)=O)NC(=O)CNC(=O)[C@@H]1C[C@@H](O)CN1)C(=O)N[C@@H](C)C(=O)NCC(=O)N1CCC[C@H]1C(=O)N[C@@H](CCCCN)C(=O)O [YY-101] (H-[Hyp]GQDGLAGPK-OH; N-terminus and C-terminus assumed),TIMP-1 Concentration,[1],2635.9 pg/mL
same,TIMP-1 MFI,[1],1569.7
same,TIMP-1 conc/live cell,[1],411.8 pg/10^5
same,TIMP-1 Concentration,[2],2670.8 pg/mL and 2497.3 pg/mL and 2739.7 pg/mL
same,TIMP-1 MFI,[2],1596.0 and 1464.5 and 1648.5
same,TIMP-1 conc/live cell,[2],468.6 pg/10^5 and 351.7 pg/10^5 and 415.1 pg/10^5
same,TIMP-1 Concentration,[3],2651.1 pg/mL
same,TIMP-1 MFI,[3],1581.2
same,TIMP-1 conc/live cell,[3],430.2 pg/10^5
same,TIMP-1 Concentration,[4],2636.0 pg/mL and 2552.3 pg/mL and 2765.2 pg/mL
same,TIMP-1 MFI,[4],1569.5 and 1506.0 and 1668.0
same,TIMP-1 conc/live cell,[4],411.9 pg/10^5 and 425.4 pg/10^5 and 453.3 pg/10^5
same,TIMP-1 Concentration,[5],2599.6 pg/mL
same,TIMP-1 MFI,[5],1542.0
same,TIMP-1 conc/live cell,[5],445.1 pg/10^5
same,TIMP-1 Concentration,[6],2721.3 pg/mL and 2498.6 pg/mL and 2578.7 pg/mL
same,TIMP-1 MFI,[6],1634.5 and 1465.5 and 1526.0
same,TIMP-1 conc/live cell,[6],438.9 pg/10^5 and 480.5 pg/10^5 and 415.9 pg/10^5
same,TIMP-1 Concentration,[7],2672.9 pg/mL
same,TIMP-1 MFI,[7],1597.7
same,TIMP-1 conc/live cell,[7],410.8 pg/10^5
same,TIMP-1 Concentration,[8],2614.9 pg/mL and 2656.4 pg/mL and 2747.5 pg/mL
same,TIMP-1 MFI,[8],1553.5 and 1585.0 and 1654.5
same,TIMP-1 conc/live cell,[8],415.1 pg/10^5 and 374.1 pg/10^5 and 443.2 pg/10^5
same,TIMP-1 Concentration,[9],2693.7 pg/mL
same,TIMP-1 MFI,[9],1613.7
same,TIMP-1 conc/live cell,[9],409.5 pg/10^5
same,TIMP-1 Concentration,[10],2741.7 pg/mL and 2801.1 pg/mL and 2538.4 pg/mL
same,TIMP-1 MFI,[10],1650.0 and 1695.5 and 1495.5
same,TIMP-1 conc/live cell,[10],456.9 pg/10^5 and 437.7 pg/10^5 and 334.0 pg/10^5
same,TIMP-1 Concentration,[11],3324.7 pg/mL
same,TIMP-1 MFI,[11],2100.3
same,TIMP-1 conc/live cell,[11],574.3 pg/10^5
same,TIMP-1 Concentration,[12],3425.7 pg/mL and 3369.3 pg/mL and 3179.1 pg/mL
same,TIMP-1 MFI,[12],2179.0 and 2135.0 and 1987.0
same,TIMP-1 conc/live cell,[12],543.8 pg/10^5 and 543.4 pg/10^5 and 635.8 pg/10^5
same,TIMP-1 Concentration,[13],5306.9 pg/mL
same,TIMP-1 MFI,[13],3666.0
same,TIMP-1 conc/live cell,[13],1065.2 pg/10^5
same,TIMP-1 Concentration,[14],5042.4 pg/mL and 5571.4 pg/mL
same,TIMP-1 MFI,[14],3456.0 and 3876.0
same,TIMP-1 conc/live cell,[14],969.7 pg/10^5 and 1160.7 pg/10^5
same,TIMP-1 Concentration,[15],4907.8 pg/mL
same,TIMP-1 MFI,[15],3349.3
same,TIMP-1 conc/live cell,[15],971.6 pg/10^5
same,TIMP-1 Concentration,[16],4573.6 pg/mL and 5242.0 pg/mL
same,TIMP-1 MFI,[16],3084.0 and 3614.5
same,TIMP-1 conc/live cell,[16],1039.5 pg/10^5 and 903.8 pg/10^5
same,TIMP-1 Concentration,[17],5121.4 pg/mL
same,TIMP-1 MFI,[17],3518.8
same,TIMP-1 conc/live cell,[17],931.2 pg/10^5
same,TIMP-1 Concentration,[18],5155.8 pg/mL and 5087.1 pg/mL
same,TIMP-1 MFI,[18],3546.0 and 3491.5
same,TIMP-1 conc/live cell,[18],937.4 pg/10^5 and 924.9 pg/10^5
same,TIMP-1 Concentration,[19],6576.7 pg/mL
same,TIMP-1 MFI,[19],4666.8
same,TIMP-1 conc/live cell,[19],1047.2 pg/10^5
same,TIMP-1 Concentration,[20],8049.3 pg/mL and 5104.1 pg/mL
same,TIMP-1 MFI,[20],5828.5 and 3505.0
same,TIMP-1 conc/live cell,[20],1257.7 pg/10^5 and 836.7 pg/10^5
same,TIMP-1 Concentration,[21],6554.3 pg/mL
same,TIMP-1 MFI,[21],4654.3
same,TIMP-1 conc/live cell,[21],982.4 pg/10^5
same,TIMP-1 Concentration,[22],6886.9 pg/mL and 6221.7 pg/mL
same,TIMP-1 MFI,[22],4917.0 and 4391.5
same,TIMP-1 conc/live cell,[22],1076.1 pg/10^5 and 888.8 pg/10^5
CC(C)C[C@H](NC(=O)[C@H](CCC(N)=O)NC(=O)CNC(=O)[C@@H]1C[C@@H](O)CN1)C(=O)NCC(=O)O [YDE-043] (H-[Hyp]GQLG-OH; N-terminus and C-terminus assumed),TIMP-1 Concentration,[1],2001.5 pg/mL
same,TIMP-1 MFI,[1],1096.8
same,TIMP-1 conc/live cell,[1],406.7 pg/10^5
same,TIMP-1 Concentration,[2],1887.3 pg/mL and 2046.6 pg/mL and 2070.5 pg/mL
same,TIMP-1 MFI,[2],1014.0 and 1129.5 and 1147.0
same,TIMP-1 conc/live cell,[2],428.9 pg/10^5 and 341.1 pg/10^5 and 450.1 pg/10^5
same,TIMP-1 Concentration,[3],1986.7 pg/mL
same,TIMP-1 MFI,[3],1085.8
same,TIMP-1 conc/live cell,[3],380.0 pg/10^5
same,TIMP-1 Concentration,[4],2007.5 pg/mL and 1991.7 pg/mL and 1960.7 pg/mL
same,TIMP-1 MFI,[4],1101.0 and 1089.5 and 1067.0
same,TIMP-1 conc/live cell,[4],446.1 pg/10^5 and 301.8 pg/10^5 and 392.1 pg/10^5
same,TIMP-1 Concentration,[5],1829.5 pg/mL
same,TIMP-1 MFI,[5],972.8
same,TIMP-1 conc/live cell,[5],339.9 pg/10^5
same,TIMP-1 Concentration,[6],1850.4 pg/mL and 1718.3 pg/mL and 1919.9 pg/mL
same,TIMP-1 MFI,[6],987.5 and 893.5 and 1037.5
same,TIMP-1 conc/live cell,[6],370.1 pg/10^5 and 306.8 pg/10^5 and 342.8 pg/10^5
same,TIMP-1 Concentration,[7],1838.3 pg/mL
same,TIMP-1 MFI,[7],979.0
same,TIMP-1 conc/live cell,[7],348.3 pg/10^5
same,TIMP-1 Concentration,[8],1928.2 pg/mL and 1809.9 pg/mL and 1776.9 pg/mL
same,TIMP-1 MFI,[8],1043.5 and 958.5 and 935.0
same,TIMP-1 conc/live cell,[8],332.5 pg/10^5 and 377.1 pg/10^5 and 335.3 pg/10^5
same,TIMP-1 Concentration,[9],1844.9 pg/mL
same,TIMP-1 MFI,[9],983.7
same,TIMP-1 conc/live cell,[9],342.1 pg/10^5
same,TIMP-1 Concentration,[10],1853.9 pg/mL and 1912.3 pg/mL and 1768.4 pg/mL
same,TIMP-1 MFI,[10],990.0 and 1032.0 and 929.0
same,TIMP-1 conc/live cell,[10],356.5 pg/10^5 and 354.1 pg/10^5 and 315.8 pg/10^5
same,TIMP-1 Concentration,[11],2156.3 pg/mL
same,TIMP-1 MFI,[11],1210.3
same,TIMP-1 conc/live cell,[11],342.6 pg/10^5
same,TIMP-1 Concentration,[12],2247.5 pg/mL and 2065.1 pg/mL
same,TIMP-1 MFI,[12],1277.5 and 1143.0
same,TIMP-1 conc/live cell,[12],362.5 pg/10^5 and 322.7 pg/10^5
